According to US9859508B2, “Condensed polycyclic aromatic compound and use thereof” (Nippon Kayaku Kabushiki Kaisha, priority 2013, dated 2018):

How the values were obtained:
[1] = Cyclic voltammetry (CV) in dichloromethane; format: physicochemical; details: n-BuN4PF6 0.1 M, silver/silver chloride reference electrode, 100 mV/sec
Experimental: (3) Measurement of CV (Cyclic Voltammetry)
CV was measured using dichloromethane as a solvent, tetrabutylammonium hexafluorophosphate (n-BuN4PF6, 0.1 M) as a supporting salt, platinum wires as a working electrode and a counter electrode, and a silver/sliver chloride electrode as a reference electrode, and sweeping the electric potential at a rate of 100 mV/sec.

[2] = Solubility to chloroform (saturated chloroform solutions); format: physicochemical; details: mass percent concentration of saturated chloroform solution
Experimental: (1) Measurement of Solubility
Solubility was measured using chloroform as a solvent.

Compound | first half-wave reduction potential [1] [V] | second half-wave reduction potential [1] [V] | Solubility to Chloroform [2] [w/w %]
CCCCCCCCc1cc2c(cc(CCCCCCCC)c3cc(=C(C#N)C#N)sc32)c2sc(=C(C#N)C#N)cc12 [Compound 110] | 0.15 | −0.14 | 
CCCCCCCCCCCCc1cc2c(cc(CCCCCCCCCCCC)c3cc(=C(C#N)C#N)sc32)c2sc(=C(C#N)C#N)cc12 [Compound 112] | 0.15 | −0.14 | 0.20
CCCCCCCCCCCCCCCCc1cc2c(cc(CCCCCCCCCCCCCCCC)c3cc(=C(C#N)C#N)sc32)c2sc(=C(C#N)C#N)cc12 [Compound 114] | 0.15 | −0.14 | 
CCCCC(CC)Cc1cc2c(cc(CC(CC)CCCC)c3cc(=C(C#N)C#N)sc32)c2sc(=C(C#N)C#N)cc12 (stereo not shown) [Compound 119] | 0.15 | −0.14 | 0.53
